Test results taken from patent US6239131A, “1,5 Benzodiazepine derivatives” (Zeria Pharmaceutical Co., Ltd., priority 1996, dated 2001).

The molecules below were run on pentagastrin-stimulated acid secretion (assay: Measurement of Inhibition of Pentagastrin-stimulated Acid Secretion). Conditions: 0.3 mg/kg, intraduodenal, rat; acid output from 1 to 4 hours after administration; pentagastrin 15 μg/kg/hr.
Type: in vivo, male Sprague-Dawley (SD)-strain rats
Description: Male Sprague-Dawley (SD)-strain rats were used. Each rat was operated to ligate the pylorus, and equip with a duodenal catheter and gastric fistula under a ether anesthesia. After the operation, each rat was placed in a Bollman-type cage and continuously infused pentagastrin (15 μg/kg/hr) through the tail vein. Test compounds were suspended in 0.5% aqueous sodium carboxymethylcellulose (which hereinafter be abbreviated as "vehicle"). Vehicle or test compound was administered through the intraduodenal catheter 1 hour after the beginning of pentagastrin infusion. Acidity of the collected gastric juice was measured by an automatic titillation device. Acid output was determined by multiplying the volume by the acidity of gastric juice. […] [formula]

| Structure (SMILES) | inhibition in vivo at 0.3 mg/kg |
| --- | --- |
| Cc1ccc(NC(=O)N[C@@H]2CN(C3CCCCC3)c3ccccc3N(CC(=O)C(C)(C)C)C2=O)cc1C(=O)O [Example 166, (R)-(-)-2-methyl-5-[3-(1-tert-butylcarbonylmethyl-2-oxo-5-cyclohexyl-1,3,4,5-tetrahydro-2H-1,5-benzodiazepin-3-yl)ureido]benzoic acid] | 51.2% |

Same assay, conditions: 1 mg/kg, intraduodenal, rat; acid output from 1 to 4 hours after administration; pentagastrin 15 μg/kg/hr

| Structure (SMILES) | inhibition in vivo at 1 mg/kg |
| --- | --- |
| Cc1ccc2c(c1)N(CC(=O)c1ccccc1C)C(=O)C(NC(=O)Nc1cccc(C(=O)O)c1)CN2C(=O)C(C)(C)C (single isomer, unassigned; (+)) [Example 13 (+form), (+)-3-[3-[1-(2-toluoylmethyl)-2-oxo-5-pivaloyl-8-methyl-1,3,4,5-tetrahydro-2H-1,5-benzodiazepin-3-yl]ureido]benzoic acid] | 81.5% |

Same assay, conditions: 3 mg/kg, intraduodenal, rat; acid output from 1 to 4 hours after administration; pentagastrin 15 μg/kg/hr

| Structure (SMILES) | inhibition in vivo at 3 mg/kg |
| --- | --- |
| Cc1ccc2c(c1)N(CC(=O)c1ccccc1C)C(=O)C(NC(=O)Nc1cccc(C(=O)O)c1)CN2C(=O)C(C)(C)C (racemic) [Example 13 (racemate), 3-[3-[1-(2-toluoylmethyl)-2-oxo-5-pivaloyl-8-methyl-1,3,4,5-tetrahydro-2H-1,5-benzodiazepin-3-yl]ureido]benzoic acid] | 80.9% |

Same assay, conditions: 30 mg/kg, intraduodenal, rat; acid output from 1 to 4 hours after administration; pentagastrin 15 μg/kg/hr

| Structure (SMILES) | inhibition in vivo at 30 mg/kg |
| --- | --- |
| Cc1ccc2c(c1)N(CC(=O)c1cccs1)C(=O)C(NC(=O)Nc1cccc(C(=O)O)c1)CN2C(=O)C(C)(C)C (stereo not drawn) [Example 89, 3-[3-[1-(2-Thenoylmethyl)-2-oxo-5-pivaloyl-8-methyl-1,3,4,5-tetrahydro-2H-1,5-benzodiazepin-3-yl]ureido]benzoic acid] | 87.8% |
| Cc1ccc2c(c1)N(CC(=O)c1ccccc1C)C(=O)C(NC(=O)Nc1cccc(C(=O)O)c1)CN2C(=O)c1ccco1 (stereo not drawn) [Example 113, 3-[3-[1-(2-toluoylmethyl)-2-oxo-5-(furan-2-ylcarbonyl)-8-methyl-1,3,4,5-tetrahydro-2H-1,5-benzodiazepin-3-yl]ureido]benzoic acid] | 75.7% |
| Cc1ccc2c(c1)N(CC(=O)C(C)(C)C)C(=O)C(NC(=O)Nc1cccc(C(=O)O)c1)CN2C1CCCCC1 (stereo not drawn) [Example 118, 3-[3-(1-tert-butylcarbonylmethyl-2-oxo-5-cyclohexyl-8-methyl-1,3,4,5-tetrahydro-2H-1,5-benzodiazepin-3-yl)ureido]benzoic acid] | 88.3% |

Same assay, conditions: Rattus norvegicus, intraduodenal, 4 h, read-out: % Inhibition of acid output

| Structure (SMILES) | inhibition in vivo at 10 mg/kg |
| --- | --- |
| Cc1ccccc1C(=O)CN1C(=O)C(NC(=O)Nc2cccc(C(=O)O)c2)CN(C(=O)C(C)(C)C)c2ccccc21 (single isomer, unassigned) | 69.8% |

Each molecule was assayed against T1, CCK-B receptors (Cavia porcellus, UniProt H0VZC5) (assay: Measurement of Binding Affinity for CCK-B Receptors). Conditions: inhibition of specific [3H]CCK-8 (1.0 nM) binding; guinea pig cerebral cortex; 25° C., 2 hours; pH 6.5; read-out: Ki (CCK-B receptors).
T1 construct: Cerebral cortices were removed from Hartley-strain guinea pigs, the cerebral cortices were homogenized; from tissue; host or cells: cerebral cortex of Hartley-strain guinea pigs, crude membrane pellet
T1 sequence (H0VZC5 1-426): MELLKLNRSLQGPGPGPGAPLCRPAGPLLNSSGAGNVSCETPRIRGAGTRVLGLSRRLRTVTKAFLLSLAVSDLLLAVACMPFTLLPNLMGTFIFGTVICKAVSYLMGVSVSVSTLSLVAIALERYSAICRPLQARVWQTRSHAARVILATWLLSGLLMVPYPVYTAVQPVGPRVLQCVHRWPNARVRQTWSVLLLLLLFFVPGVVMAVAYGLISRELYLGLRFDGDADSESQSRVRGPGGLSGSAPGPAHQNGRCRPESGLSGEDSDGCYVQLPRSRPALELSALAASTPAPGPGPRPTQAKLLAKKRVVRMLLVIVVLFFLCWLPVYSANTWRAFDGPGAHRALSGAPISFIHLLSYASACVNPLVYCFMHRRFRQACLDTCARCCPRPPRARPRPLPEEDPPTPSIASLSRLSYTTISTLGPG
Set-up: species or system Hartley-strain guinea pig
Description: Cerebral cortices were removed from Hartley-strain guinea pigs, the cerebral cortices were homogenized in 50 volumes of 50 mM Tris-HCl buffer (pH7.4) and centrifuged at 50000×g for 10 minutes. The Tris-HCl buffer was added to the pellet and recentrifuged as above two times. The final pellet was rehomogenized in 10 mM HEPES buffer (pH 6.5, which hereinafter be abbreviated as "solvent") containing 5 mM MgCl2, 1 mM EGTA, 0.25 mg/ml bacitracin and 130 mM NaCl, and used as the receptor preparation.
Binding assay was measured as follows. Fifty μl of [^3 H]CCK-8 (at the final concentration of 1.0 nM) and 900 μl of the receptor preparation (800 μg protein/tube) were added to 50 μl of either solvent, CCK-8 (1 μM) or a test compound. These ware reacted at 25° C. for 2 hours. After the reaction, the mixture was filtrated through Whatman GF/B filter presoaked in 0.1% BSA. The filter was washed with 3 ml of ice-cold 50 mM Tris-HCl buffer (pH 7.4) four times, immediately after the filtration. The filter was soaked in the ACS-II scintillation cocktail for a day and radioactivity was measured using a liquid scintillation counter. Non-specific binding was defined as the radioactivity in the presence of 1 μM CCK-8. Specific binding was defined as the difference between total binding (used solvent without CCK-8) and non-specific binding. Inhibitor dissociation constant (Ki) of each test compound was determined from the inhibition of specific [^3 H]CCK-8 binding.

| Ki | Structure (SMILES) |
| --- | --- |
| 3.16 nM | Cc1ccc2c(c1)N(CC(=O)c1ccccc1C)C(=O)C(NC(=O)Nc1cccc(C(=O)O)c1)CN2C(=O)C(C)(C)C (racemic) [Example 13 (racemate), 3-[3-[1-(2-toluoylmethyl)-2-oxo-5-pivaloyl-8-methyl-1,3,4,5-tetrahydro-2H-1,5-benzodiazepin-3-yl]ureido]benzoic acid] |
| 1.16 nM | Cc1ccc2c(c1)N(CC(=O)c1ccccc1C)C(=O)C(NC(=O)Nc1cccc(C(=O)O)c1)CN2C(=O)C(C)(C)C (single isomer, unassigned; (+)) [Example 13 (+form), (+)-3-[3-[1-(2-toluoylmethyl)-2-oxo-5-pivaloyl-8-methyl-1,3,4,5-tetrahydro-2H-1,5-benzodiazepin-3-yl]ureido]benzoic acid] |
| 1.11 nM | Cc1cccc(NC(=O)NC2CN(C(=O)C(C)(C)C)c3ccc(C)cc3N(CC(=O)c3ccccc3C)C2=O)c1 (stereo not drawn) [Example 4, 1-[1-(2-toluoylmethyl)-2-oxo-5-pivaloyl-8-methyl-1,3,4,5-tetrahydro-2H-1,5-benzodiazepin-3-yl]-3-(3-methylphenyl)urea] |
| 0.99 nM | CN(C(=O)CN1C(=O)C(NC(=O)Nc2cccc(C(=O)NS(C)(=O)=O)c2)CN(c2ccccc2)c2ccccc21)c1ccccc1 (stereo not drawn) [Example 15, 1-[1-(N-phenyl-N-methyl)carbamoylmethyl-2-oxo-5-phenyl-1,3,4,5-tetrahydro-2H-1,5-benzodiazepin-3-yl]-3-(3-methylsulfonylaminocarbonylphenyl)urea] |
| 0.61 nM | CC(C)(C)C(=O)CN1C(=O)C(NC(=O)Nc2cccc(OCC(=O)O)c2)CN(c2ccccc2)c2ccccc21 (stereo not drawn) [Example 35, 3-[3-(1-tert-butylcarbonylmethyl-2-oxo-5-phenyl-1,3,4,5-tetrahydro-2H-1,5-benzodiazepin-3-yl)ureido]phenoxyacetic acid] |
| 0.7 nM | CC(C)(C)C(=O)CN1C(=O)C(NC(=O)Nc2cccc(C(=O)NS(C)(=O)=O)c2)CN(c2ccccc2)c2ccccc21 (stereo not drawn) [Example 46, 1-(1-tert-butylcarbonylmethyl-2-oxo-5-phenyl-1,3,4,5-tetrahydro-2H-1,5-benzodiazepin-3-yl)-3-(3-methylsulfonylaminocarbonylphenyl)urea] |
| 5.02 nM | COC(=O)N1CC(NC(=O)Nc2cccc(C)c2)C(=O)N(CC(=O)c2ccccc2C)c2ccccc21 (stereo not drawn) [Example 49, 1-[1-(2-toluoylmethyl)-2-oxo-5-methoxycarbonyl-1,3,4,5-tetrahydro-2H-1,5-benzodiazepin-3-yl]-3-(3-methylphenyl)urea] |
| 0.98 nM | Cc1ccccc1C(=O)CN1C(=O)C(NC(=O)Nc2cccc(-c3nnn[nH]3)c2)CN(C(=O)C(C)(C)C)c2ccccc21 (stereo not drawn) [Example 61, 1-[1-(2-toluoylmethyl)-2-oxo-5-pivaloyl-1,3,4,5-tetrahydro-2H-1,5-benzodiazepin-3-yl]-3-[3-(tetrazol-5-yl)phenyl]urea] |
| 0.79 nM | Cc1ccccc1C(=O)CN1C(=O)C(NC(=O)Nc2cccc(-c3noc(=O)[nH]3)c2)CN(C(=O)C(C)(C)C)c2ccccc21 (stereo not drawn) [Example 62, 1-[1-(2-toluoylmethyl)-2-oxo-5-pivaloyl-1,3,4,5-tetrahydro-2H-1,5-benzodiazepin-3-yl]-3-[3-(5-oxo-4H-1,2,4-oxadiazolin-3-yl)phenyl]urea] |
| 2.88 nM | Cc1cccc(NC(=O)NC2CN(c3ccccc3)c3ccccc3N(CC(=O)C(C)(C)C)C2=O)c1 (stereo not drawn) [Example 71, 1-(1-tert-butylcarbonylmethyl-2-oxo-5-phenyl-1,3,4,5-tetrahydro-2H-1,5-benzodiazepin-3-yl)-3-(3-methylphenyl)urea] |
| 1.57 nM | Cc1ccccc1C(=O)CN1C(=O)C(NC(=O)Nc2cccc(CC(=O)O)c2)CN(C(=O)C(C)(C)C)c2ccccc21 (stereo not drawn) [Example 72, 3-[3-[1-(2-toluoylmethyl)-2-oxo-5-pivaloyl-1,3,4,5-tetrahydro-2H-1,5-benzodiazepin-3-yl]ureido]phenylacetic acid] |
| 0.18 nM | Cc1ccccc1C(=O)CN1C(=O)C(NC(=O)Nc2cccc(SCC(=O)O)c2)CN(C(=O)C(C)(C)C)c2ccccc21 (stereo not drawn) [Example 78, 3-[3-[1-(2-toluoylmethyl)-2-oxo-5-pivaloyl-1,3,4,5-tetrahydro-2H-1,5-benzodiazepin-3-yl]ureido]phenylthioacetic acid] |
| 1.29 nM | CCC(C)(C)C(=O)N1CC(NC(=O)Nc2cccc(C(=O)O)c2)C(=O)N(CC(=O)c2ccccc2C)c2cc(C)ccc21 (stereo not drawn) [Example 93, 3-[3-[1-(2-toluoylmethyl)-2-oxo-5-(2,2-dimethylbutanoyl)-8-methyl-1,3,4,5-tetrahydro-2H-1,5-benzodiazepin-3-yl]ureido]benzoic acid] |
| 1.33 nM | Cc1ccc2c(c1)N(CC(=O)c1ccccc1C)C(=O)C(NC(=O)Nc1cccc(C(=O)O)c1)CN2C(=O)c1ccccn1 (stereo not drawn) [Example 105, 3-[3-[1-(2-toluoylmethyl)-2-oxo-5-(2-pyridylcarbonyl)-8-methyl-1,3,4,5-tetrahydro-2H-1,5-benzodiazepin-3-yl]ureido]benzoic acid] |
| 0.43 nM | CC(C)(C)C(=O)CN1C(=O)[C@H](NC(=O)Nc2cccc(OC(C)(C)C(=O)O)c2)CN(C2CCCCC2)c2ccccc21 [Example 125, (R)-(-)-2-methyl-2-[3-[3-(1-tert-butylcarbonylmethyl-2-oxo-5-cyclohexyl-1,3,4,5-tetrahydro-2H-1,5-benzodiazepin-3-yl)ureido]phenoxy]propionic acid] |
| 2.86 nM | COc1cccc(NC(=O)NC2CN(C3CCCCC3)c3ccccc3N(CC(=O)C(C)(C)C)C2=O)c1 (stereo not drawn) [Example 151, 1-(1-tert-butylcarbonylmethyl-2-oxo-5-cyclohexyl-1,3,4,5-tetrahydro-2H-1,5-benzodiazepin-3-yl)-3-(3-methoxyphenyl)urea] |
| 1.97 nM | CC(C)(C)C(=O)CN1C(=O)[C@H](NC(=O)Nc2cccc(C(=O)O)c2)CN(C[C@@H]2CC[C@H]3C[C@@H]2C3(C)C)c2ccccc21 [Example 157, 3-[3-[(3R)-1-tert-butylcarbonylmethyl-2-oxo-5-[(1S, 2R, 5S)-pinan-10-yl]-1,3,4,5-tetrahydro-2H-1,5-benzodiazepin-3-yl]ureido]benzoic acid] |

| Structure (SMILES) | Ki |
| --- | --- |
| Cc1ccccc1C(=O)CN1C(=O)C(NC(=O)Nc2cccc(C(=O)O)c2)CN(C(=O)C(C)(C)C)c2ccccc21 (single isomer, unassigned) | 1.42 nM |
| CC(C)(C)OC(=O)CN1C(=O)C(NC(=O)Nc2cccc(C(=O)NS(C)(=O)=O)c2)CN(c2ccccc2)c2ccccc21 (stereo not drawn) [Example 16, 1-(1-tert-butoxycarbonylmethyl-2-oxo-5-phenyl-1,3,4,5-tetrahydro-2H-1,5-benzodiazepin-3-yl)-3-(3-methylsulfonylaminocarbonylphenyl)urea] | 2.14 nM |
| CC(C)(C)OC(=O)CN1C(=O)C(NC(=O)Nc2cccc(SCC(=O)O)c2)CN(c2ccccc2)c2ccccc21 (stereo not drawn) [Example 81, 3-[3-[1-tert-butoxycarbonylmethyl-2-oxo-5-phenyl-1,3,4,5-tetrahydro-2H-1,5-benzodiazepin-3-yl]ureido]phenylthioacetic acid] | 0.56 nM |
